In patent publication US20190309323A1, “PROMOTER WITH AN ENRICHED CYTOSINE-GUANINE DINUCLEOTIDE REGION, VECTORS, CELLULAR LINES, METHOD FOR PRODUCING RECOMBINANT PROTEIN” (UNIVERSIDAD DE CHILE, priority 2016, published 2019):

System: CHO-K1 cells
Test: Transient transfection Dual-Glo luciferase assay (Luc/Ren)
Format: cell-based, Chinese hamster
Conditions: FIG. 9
Procedure: Furthermore, the effect of addition of the promoter on luciferase activity in transient transfections was determined. CHO-K1 cells were grown to reach 90% confluence were co-transfected using Lipofectamine CD (Invitrogen. EEU U), with the normalization vector pGL4.73 (Promega. USA) expressing Renilla luciferase reniformis (Ren), under the control of SV40 promoter, and with experimental vectors Seq1-Luc (SEQ ID No.: 2), Seq4-Luc (SEQ ID No.: 35) and Seq5-Luc (SEQ ID No.: 36) expressing Photinus pyralis luciferase (Luc), under the control of the promoters studied and pGL4.17 (base vector without promoter).
CHO-K1 cells were cultured in 24-well plates in DMEM-F12 medium (Gibco) supplemented with fetal bovine serum (FBS) (HyClone) 10%, at 37° C. and 5% CO2, inoculating 300,000 cells/mL for 24 hours, or up to between 80 to 90% confluency. […] To analyze the activity of the reporter gene transfections, the “Dual-Glo Luciferase Assay System (Promega. USA)” (Promega) was used following the manufacturer's instruction, where from cell lysate its measurable sequentially luciferase activity firefly expressed as reporters vectors and activity of renilla luciferase expressed by the normalizer vector. Both activities were mediated by quantifying luminiscence read on a Lumininometer, model Luminoskan ASECNT (Thermo Electronic Corporation). […]

Row | Molecule | relative luciferase activity in transient transfection
1 | Seq5-Luc: reporter vector SEQ ID No. 36 under control of the minimal portion of CMV or Core CMV [reference compound] | lowest activity
2 | RegCG: 1147 bp fragment of Cricetulus griseus β-actin promoter rich in cytosine-guanine dinucleotides, SEQ ID NO. 5 (nucleic acid, Promoter) DNA: GGAGAGGGGGTAAAAAAATGCTGCACTGTGCGGCTAGGCCGGTGAGTGAGCGGCGCGGAGCCAATCAGCGCTCGCCGTTCCGAAAGTTGCCTTTTATGGCTCGAGTGGCCGCTGTGGCGTCCTATAAAACCCGGCGGCGCAACGCGCAGCCACTGTCGAGTCCGCGTCCACCCGCGAGCACAGGCCTTTCGCAGCTCTTTCTTCGCCGCTCCACACCCGCCACCAGGTAAGCAGGGACAACAGGCCCAGCCGGCCACAGCCCTCCCGTGGGCAGTGACCGCGCTGCAGGGTCGCGGGGGACACTCGGCGCGGACACCGGGGAAGGCTGGAGGGTGGTGCCGGGCCGCGGAGCGGACACTTTCAGATCCAACTTTCAGTCCAGGGTGTAGACCCTTTACAGCCGCATTGCCACGGTGTAGACACCGGTGGACCCGCTCTGGCTCAGAGCACGCGGCTTGGGGGAACCCATTAGGGTCGCAGTGTGGGCGCTATGAGAGCCGATGCAGCTTTCGGGTGTTGAACCGTATCTGCCCACCTTGGGGGGAGGACACAAGGTCGGGAGCCAAACGCCACGATCATGCCTTGGTGGCCCATGGGTCTTTGTCTAAACCGGTTTGCCCATTTGGCTTGCCGGGCGGGCGGGCGCGGCGGGCCCGGCTCGGCCGGGTTGGGGGCTGGGTTGCCACTGCGCTTGCGCGCTCTATGGCTGGGTATTGGGGCGCGTGCACGCTGGGGAGGGAGCCCTTCCTCTTCCCCCTCTCCCAAGTTAAACTTGCGCGTGCGTATTGAGACTTGGAGCGCGGCCACCGGGGTTGGGCGAGGGCGGGGCCGTTGTCCGGAAGGGGCGGGGTCGCAGCGGCTTCGGGGCGCCTGCTCGCGCTTCCTGCTGGGTGTGGTCGCCTCCCGCGCGCGCACTAGCCGCCCGCCGGCGGGGCGAAGGCGGGGCTTGCGCCCGTTTGGGGAGGGGGCGGAGGCCTGGCTTCCTGCCGTGGGGCCGCCTCCGGACCAGCGTTTGCCTCTTATGGTAATAACGCGGCCGGCCTGGGCTTCCTTTGTCCCCTGAGTTTGGGCGCGCGCCCCCTGGCGGCCCGAGGCCGCGGCTTGCCGGAAGTGGGCAGGGCGGCAGCGGCTGCGCCTAGTGGCCCGCCAGTGACCGCGACCCTCTTTTGTGCCCTGATATAGTTCGCC | has transcriptional activity
